Test results reported in PubChem BioAssay (NCI).
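In this assay, cells in 96-well plates receive the compound at five concentrations for 48 hours. Endpoints are linearly interpolated between the surrounding concentrations. TGI: total growth inhibition.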

Assays:
Test in all cases: inhibition of tumour cell growth, NCI panel, 48 h
[1] = system: UACC-62 melanoma
[2] = system: NCI-H226 lung
[3] = system: UACC-257 melanoma
[4] = system: CAKI-1 renal
[5] = system: HOP-92 NSCLC
[6] = system: TK-10 renal
[7] = system: 786-0 renal
[8] = system: HCC-2998 colon
[9] = system: BT-549 breast
[10] = system: UO-31 renal
[11] = system: MALME-3M melanoma
[12] = system: HS 578T breast
[13] = system: OVCAR-5 ovarian
[14] = system: PC-3 prostate
[15] = system: ACHN renal
[16] = system: SN12C renal
[17] = system: A549 NSCLC
[18] = system: HL-60(TB) leukemia
[19] = system: RPMI-8226 leukemia
[20] = system: MDA-N

Row | SMILES | TGI [1] | TGI [2] | TGI [3] | TGI [4] | TGI [5] | TGI [6] | TGI [7] | TGI [8] | TGI [9] | TGI [10] | TGI [11] | TGI [12] | TGI [13] | TGI [14] | TGI [15] | TGI [16] | TGI [17] | TGI [18] | TGI [19] | TGI [20]
1 | Cc1ccc([N+](=O)[O-])c2c(NCCC[N+](C)(C)[O-])c3ccccc3nc12 | 3.4 µM | 5.17 µM | 6.11 µM | 97 µM | 5.04 µM | 80.5 µM | 6.72 µM | 2.55 µM | 4.81 µM | 42.6 µM | 2.78 µM | 21.7 µM | 10.2 µM | 4.41 µM | 47.7 µM | 8.74 µM | 6.29 µM | 34.5 µM |  | 
2 | Cc1cc(N(CCC#N)CCC#N)ccc1/C=C(\NC(=O)/C=C/c1ccccc1)C(N)=O | > 100 µM | > 100 µM | > 100 µM | > 100 µM |  | > 100 µM | > 100 µM | > 100 µM |  | > 100 µM | > 100 µM |  | > 100 µM |  | > 100 µM | > 100 µM | > 100 µM | > 100 µM | > 100 µM | 
3 | O=C(Nc1nnc(-c2ccc(Cl)cc2)o1)C(SC(=S)N1CCOCC1)c1ccccc1 (configuration not stated) |  | 56.4 µM | > 100 µM | > 100 µM |  | > 100 µM | > 100 µM |  | 62.5 µM | 30 µM | > 100 µM | > 100 µM | 88.2 µM | 55.1 µM | 83.5 µM | 42.7 µM | 81.3 µM | 25.7 µM | > 100 µM | 
4 | CCOC(=O)CC(C)C1(C(=O)OCC)CCCCC1=O (configuration not stated) | > 100 µM | > 100 µM | > 100 µM | > 100 µM |  | > 100 µM | > 100 µM | > 100 µM |  | > 100 µM | > 100 µM |  | > 100 µM |  | > 100 µM | > 100 µM | > 100 µM | > 100 µM | 60.6 µM | 
5 | CCOC(=O)c1c(N2CCOCC2)[nH]c(=O)c(C(c2c(Cl)cccc2Cl)c2c(O)c(C(=O)OCC)c(N3CCOCC3)[nH]c2=O)c1O | 20 µM | 27.3 µM | 18.7 µM | 5.24 µM | 8.56 µM | 14.3 µM | 6.47 µM | 34 µM | 19.6 µM | 6.37 µM | 7.91 µM | 19.4 µM | 27.5 µM | 29.1 µM | 13 µM | 11.4 µM | 32.5 µM | 4.37 µM | 5.27 µM | 
6 | Nc1nc([O-])c2c(n1)[n+](C1OC(CO)C(O)C1O)cn2CCO (configuration not stated) | > 100 µM | > 100 µM | > 100 µM | > 100 µM | > 100 µM | > 100 µM | > 100 µM |  |  | > 100 µM | > 100 µM |  | > 100 µM |  | > 100 µM | > 100 µM | > 100 µM | > 100 µM | > 100 µM | 
7 | CN=C(SC)N(C)c1nc(=[N+](C)C)ss1 | > 100 µM | > 100 µM | > 100 µM | > 100 µM | > 100 µM | > 100 µM | > 100 µM | > 100 µM |  | > 100 µM |  |  | > 100 µM |  | > 100 µM | > 100 µM | > 100 µM | > 100 µM |  | 
8 | Cc1cc(NS(=O)(=O)c2ccc(Nc3c4ccccc4nc4c(C(=O)N5CCN(CCO)CC5)cccc34)cc2)no1 | > 100 µM | > 100 µM | > 100 µM | > 100 µM | > 100 µM | > 100 µM | > 100 µM | > 100 µM |  | > 100 µM | > 100 µM |  | > 100 µM |  | > 100 µM | > 100 µM | > 100 µM | > 100 µM |  | 
9 | CCOC(=O)c1ccc(NCc2ccc3oc(=O)c(-c4ccccc4)nc3c2)cc1 | > 100 µM | > 100 µM | 42 µM | 52.5 µM | 83 µM |  | > 100 µM | > 100 µM |  | > 100 µM | 38.8 µM |  | > 100 µM | > 100 µM | > 100 µM | > 100 µM | > 100 µM | 13.2 µM |  | 50.8 µM
10 | O=C1NC2O[C@H](CNC(=O)c3cc(Br)c[nH]3)CC2(O)N1 (mixture of isomers) | > 100 µM | > 100 µM | > 100 µM | > 100 µM | > 100 µM | > 100 µM | > 100 µM |  | > 100 µM | > 100 µM | > 100 µM | > 100 µM | > 100 µM | > 100 µM | > 100 µM | > 100 µM | > 100 µM | > 100 µM | > 100 µM | 
11 | C[Si](C)(C)OC1CC(=O)OC1n1cc(F)c(=O)[nH]c1=O (configuration not stated) | > 100 µM | > 100 µM | > 100 µM | > 100 µM |  | > 100 µM | > 100 µM | > 100 µM |  | > 100 µM | > 100 µM |  | > 100 µM |  | > 100 µM | > 100 µM | > 100 µM | > 100 µM | 40.4 µM | 
12 | O=C(CC(=O)n1nc(-c2ccccc2)c(N=Nc2ccc(Cl)cc2)c1-c1ccccc1)Nc1ccc(Cl)cc1 | > 100 µM | > 100 µM | > 100 µM | > 100 µM | > 100 µM | > 100 µM | > 61.1 µM | > 100 µM |  | > 100 µM | > 100 µM |  | > 100 µM |  | > 100 µM | > 100 µM | > 60.6 µM | > 100 µM | > 64.6 µM | 
13 | COC(=O)CC1N=C(NC#N)N(CCc2c[nH]c3ccccc23)C1=O (configuration not stated) | > 100 µM | > 100 µM | > 100 µM |  |  | > 100 µM | > 100 µM | > 100 µM |  | > 100 µM |  |  | > 100 µM |  | > 100 µM | > 100 µM | > 100 µM | > 100 µM | > 100 µM | 
14 | O=c1cc(-c2ccc(Oc3ccccc3)cc2)[nH]c2cc3c(cc12)OCO3 | > 100 µM | > 100 µM | > 100 µM |  |  | > 100 µM | > 100 µM | > 100 µM |  | > 100 µM | > 100 µM |  |  |  | > 100 µM | > 100 µM | > 100 µM | > 100 µM | > 100 µM | 
15 | COC(=O)Nc1nc2ccc(S(=O)(=O)SC)cc2[nH]1 | 22.5 µM | > 100 µM | 45.5 µM | > 100 µM | 28 µM | 22.1 µM | 16.9 µM | 42.4 µM | 22.7 µM |  | 25.6 µM | > 100 µM | 45.1 µM | 16.2 µM | 23.9 µM | 37.1 µM | > 100 µM | 8.11 µM | > 100 µM | 
16 | CC(=O)O[C@H]1C(=O)[C@@]2(C)C(C(OC(=O)c3ccccc3)[C@]3(O)CC(OC(=O)C(O)C(NC(=O)c4ccc(C(F)(F)F)cc4)c4ccccc4)C(C)=C1C3(C)C)[C@]1(OC(C)=O)CO[C@@H]1C[C@@H]2O (some centres not stated) | 0.269 µM | 4.96 µM | > 37.5 µM | > 37.5 µM | > 37.5 µM | > 37.5 µM | 5.58 µM | 0.387 µM |  |  | 13.7 µM |  | 3.95 µM |  | > 37.5 µM | 11.6 µM | > 37.5 µM | > 37.5 µM | 5.88 µM | 
17 | CC1=CCC(O)C=CC(C)C(O)C(C)C=C(C)C(=O)c2c(O)c(C)cc3c2C(=O)C(N)=C(NC(=O)/C=C\C=C/C=CC(C)C(O)CC1=O)C3=O (configuration not stated) | > 100 µM | > 100 µM | > 100 µM | > 100 µM | > 100 µM | > 100 µM | > 100 µM | > 100 µM |  | > 100 µM | 82.7 µM |  | > 100 µM |  | > 100 µM | > 100 µM | > 100 µM | 38.6 µM | > 100 µM | 
18 | COc1cc(Br)cc2cc(-c3cn4c(n3)sc3ccccc34)c(=O)oc12 | > 75 µM |  | > 75 µM | > 75 µM | 47.5 µM | > 75 µM | > 75 µM |  | 70.7 µM | > 75 µM |  | 39.9 µM | > 75 µM | 41.2 µM | > 75 µM | > 75 µM | > 75 µM | 36.2 µM | 49.8 µM | 
19 | CN(C)CC1CCCC(CN(C)C)C1OC(=O)c1ccccc1 (configuration not stated) | > 100 µM | > 100 µM | > 100 µM | > 100 µM | > 100 µM | > 100 µM | > 100 µM | > 100 µM |  | > 100 µM | > 100 µM |  | > 100 µM |  | > 100 µM | > 100 µM | > 100 µM | > 100 µM | > 100 µM | 
20 | CC1(C)C[C@@H]2C1CCC1(C)CC2(O)CC[C@H]1O (some centres not stated) | > 100 µM | > 100 µM | > 100 µM | > 100 µM | > 100 µM | > 100 µM | > 100 µM |  | > 100 µM | > 100 µM | > 100 µM | > 100 µM | > 100 µM | > 100 µM | > 100 µM | > 100 µM | > 100 µM | > 100 µM | > 100 µM | 
21 | CCOC1=NC(O)c2cccn2-c2sccc21 (configuration not stated) | > 100 µM |  |  | > 100 µM | > 100 µM | > 100 µM | > 100 µM | > 100 µM |  | > 100 µM | > 100 µM |  | > 100 µM | > 100 µM | > 100 µM | > 100 µM | > 100 µM |  | > 100 µM | > 100 µM
